# Test: modified rapid controlled precipitation method (controlled degassing of CO2 until precipitation)
# Format: physicochemical
# Description: The “Rapid-Controlled Precipitation Method” or the “Critical pH Method” can be used for determining the stability of the dialysis solution such as is described in F. Hui et al: Journal European of Water Quality (Journal European d'Hydrologie) T.33 Fasc. 1 (2002).
# The results described within the framework of this disclosure were obtained by a modified rapid controlled precipitation method. The experiment setup comprises six 3-neck flasks (Carousel-6 from Radleys) which are open toward the top to ensure a uniform degassing of CO2 from the solution. Furthermore, this setup allows an in-line measurement of e.g. the pH and the conductivity as well as the simultaneous heating of the flasks.
# The basic principle of the method used comprises the pH of the mixed solution or of the dialysis solution being slowly raised by controlled degassing of CO2 until the dialysis solution reaches a metastable state and ultimately precipitates.
# A pH measurement, a particle count or a turbidity measurement can be used, for example, as methods for detecting the precipitation. […] The measured curves which can be obtained using these methods are compared in FIG. 3. […]
# The pHmax and the precipitation products of the different solutions are compiled in Table 4 shown in the following. The values were all determined at 40° C. using the “rapid degassing” method. […]
smiles,measurement,setting,value
O=P(O)(O)OCC(O)CO (centres unmarked) [glycerol orthophosphate],Precipitation product,"40° C., rapid degassing method",no phosphates low in solubility are formed
same,stability of the solution (pHmax and tG values),"T=40° C., result in words, FIGS. 10, 12, 13, 15",almost the same stabilizing effect as the addition of 0.1 mmol/L orthophosphate
